Measurements taken from ChEMBL document CHEMBL3044886, “Chemoselective synthesis, antiproliferative activities, and SAR study of 1H-pyrazol-5-yl-N,N-dimethylformamidines and pyrazolyl-2-azadienes” (2012).

Columns and labels:
Format in all cases: functional
NCI-H226 = experiment: Growth inhibition of Homo sapiens (human) NCI-H226 cells after 72 hr by MTT assay; conditions: NCI-H226, 72 h
[1] = Growth inhibition of Homo sapiens (human) NPC-TW01 cells after 72 hr by MTT assay; conditions: NPC-TW01, 72 h
Jurkat = experiment: Growth inhibition of Homo sapiens (human) Jurkat cells after 72 hr by MTT assay

Row | Structure (SMILES) | GI50 (NCI-H226) [µM] | GI50 [1] [µM] | GI50 (Jurkat) [µM]
1 | CN(C)/C=N/c1c(C=O)c(-c2ccccc2)nn1-c1ccccc1 | 31.4 | 9.3 | 
2 | CN(C)/C=N/c1c(C=O)c(-c2ccc(Cl)cc2)nn1-c1ccc(Br)cc1 | 62.9 | > 100 | 38.9
3 | CN(C)/C=N/c1cc(-c2ccccc2)nn1-c1ccccc1 | > 100 | > 100 | > 100
4 | Cc1ccc(-c2cc(/N=C/N(C)C)n(-c3cccc(Cl)c3)n2)cc1 | 80.9 | > 100 | > 100
5 | CN(C)/C=N/c1cc(-c2ccc(Cl)cc2)nn1-c1cccc(Cl)c1 | 75.6 | 92.7 | 74.5
6 | Cc1ccc(-c2cc(/N=C/N(C)C)n(-c3ccc(Br)cc3)n2)cc1 | 73.9 | > 100 | > 100
7 | CN(C)/C=N/c1cc(-c2ccc(Cl)cc2)nn1-c1ccc(Br)cc1 | 59.8 | 60.7 | 84.9
8 | Nc1c(C=O)c(-c2ccccc2)nn1-c1ccccc1 | > 100 | > 100 | 87.3
9 | Cc1ccc(-c2nn(-c3cccc(Cl)c3)c(N)c2C=O)cc1 | 71.8 | > 100 | 86.3
10 | Nc1c(C=O)c(-c2ccc(Cl)cc2)nn1-c1cccc(Cl)c1 | 79.7 | > 100 | 78.9
11 | Cc1ccc(-c2nn(-c3ccc(Br)cc3)c(N)c2C=O)cc1 | 8.5 | 28.2 | 34.4
12 | Nc1c(C=O)c(-c2ccc(Cl)cc2)nn1-c1ccc(Br)cc1 | 49.1 | 59.7 | 90.7
13 | Nc1cc(-c2ccccc2)nn1-c1ccccc1 | 72.2 | > 100 | 83
14 | Cc1ccc(-c2cc(N)n(-c3cccc(Cl)c3)n2)cc1 | 63.5 | > 100 | 56.6
15 | Nc1cc(-c2ccc(Cl)cc2)nn1-c1cccc(Cl)c1 | 75.1 | > 100 | > 100
16 | Cc1ccc(-c2cc(N)n(-c3ccc(Br)cc3)n2)cc1 | 54.3 | 80.2 | 45
17 | Nc1cc(-c2ccc(Cl)cc2)nn1-c1ccc(Br)cc1 | 58.7 | 64.4 | 61.3
18 | Cc1ccc(-c2nn(-c3cccc(Cl)c3)c(/N=C/N(C)C)c2C=O)cc1 | 8.9 | 7.2 | 7.8
19 | CN(C)/C=N/c1c(C=O)c(-c2ccc(Cl)cc2)nn1-c1cccc(Cl)c1 | 9.2 | 7.4 | 7.7
20 | Cc1ccc(-c2nn(-c3ccc(Br)cc3)c(/N=C/N(C)C)c2C=O)cc1 | 8.2 | 6 | 6.7
